For test [1], the target named is T1, BTK (Homo sapiens, UniProt Q06187).
T1 construct: purchased Signalchem B10-10H
Briefly: Inhibitory activity against BTK, ADP-Glo Kinase system (Promega). It counts as biochemical. The protocol: (§1) Inhibitory activities against BTK and ITK were measured for the compounds prepared in the above Examples as follows.
(§2) The inhibitory activities against BTK and ITK were evaluated using 'ADP-Glo™ Kinase system' (Promega Corporation). In the case of this evaluation method, activation was measured by quantifying the amount of ADP produced during the kinase reaction, which was utilized to measure the inhibitory activities against BTK and ITK.
(§3) Specifically, the inhibitory activities against BTK and ITK were measured using BTK kinase (Signalchem, B10-10H), ITK kinase (Signalchem, I13-11G-10), and ADP-Glo kinase assay kit (Promega, V9102). Recombinant purified human BTK and ITK were diluted with 1 x kinase reaction buffer (40 mM Tris-Cl, pH 7.5, 20 mM MgCl2, 0.1 mg/mL BSA, 2 mM MnCl2 and 50 uM DTT) and added to a 96 well plate (ITK: final concentration of 4 ng per reaction/BTK: final concentration of 10 ng per reaction). The compounds prepared in the previous Examples were treated so as to be finally a 1% DMSO aqueous solution, and a substrate cocktail containing ATP (1mM or Km ATP (BTK: 10 uM /ITK: 25uM)) and 0.2 ug/ul of Poly (Glu4,Tyr1) peptide (BTK and ITK final concentration) in the total 25 uL reactants was added to a 96-well plate to initiate enzymatic reaction. After incubation (30°C) for 1 hour, equivalent volume (25 uL per reaction) of ADP Glo was added, and incubated (30°C) for 40 minutes at room temperature. Then, a kinase detection reagent (45 uL per reaction) was added, and incubated (30°C) for 30 minutes at room temperature. The kinase activity was measured by chemiluminescence according to the instructions of ADP Glo kinase assay kit, and the inhibitory activity of the compounds according to the present disclosure was calculated. For the analysis of the results of each compound, Microsoft Excel was used, and IC50 values were calculated by GraphPad Prism software.

Test [2] addresses T2, ITK (Homo sapiens, UniProt Q08881).
T2 construct: purchased Signalchem I13-11G-10
T2 sequence (Q08881 1-620): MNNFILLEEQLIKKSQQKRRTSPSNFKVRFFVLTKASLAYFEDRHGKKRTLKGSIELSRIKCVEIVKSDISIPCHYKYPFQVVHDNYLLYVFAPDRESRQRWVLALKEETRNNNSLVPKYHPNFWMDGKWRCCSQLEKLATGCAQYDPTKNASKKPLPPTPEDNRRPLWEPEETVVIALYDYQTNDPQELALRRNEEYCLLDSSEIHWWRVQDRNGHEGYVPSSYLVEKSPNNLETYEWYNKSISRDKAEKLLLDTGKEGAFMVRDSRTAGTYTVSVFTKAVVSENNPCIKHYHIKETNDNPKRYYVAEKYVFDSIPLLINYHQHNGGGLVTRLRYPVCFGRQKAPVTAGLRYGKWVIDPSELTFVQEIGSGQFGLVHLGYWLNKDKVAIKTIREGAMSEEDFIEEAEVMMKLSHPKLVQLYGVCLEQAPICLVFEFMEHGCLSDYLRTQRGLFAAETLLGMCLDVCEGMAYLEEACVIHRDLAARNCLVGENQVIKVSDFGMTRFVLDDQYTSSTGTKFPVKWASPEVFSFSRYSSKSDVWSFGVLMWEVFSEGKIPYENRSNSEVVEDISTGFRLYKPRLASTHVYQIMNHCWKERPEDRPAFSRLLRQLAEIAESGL
The test is described as follows: Inhibitory activity against ITK, ADP-Glo Kinase system (Promega). It counts as biochemical. The method, then: as §1, §2, §3
A general note: ADP-Glo first removes unused ATP, then detects ADP through luciferase.

Where [3] appears, read: Km ATP (BTK: 10 uM), read-out: BTK IC50(nM) Km ATP.
[4] abbreviates: Km ATP (ITK: 25uM), read-out: ITK IC50(nM) Km ATP.
[5] abbreviates: 1mM ATP, read-out: BTK IC50(nM) 1mM ATP.
The mark [6] stands for this setting: 1mM ATP, read-out: ITK IC50(nM) 1mM ATP.

Like-named read-outs stand apart in the source and are kept apart here.

T1 sequence (Q06187 whole entry): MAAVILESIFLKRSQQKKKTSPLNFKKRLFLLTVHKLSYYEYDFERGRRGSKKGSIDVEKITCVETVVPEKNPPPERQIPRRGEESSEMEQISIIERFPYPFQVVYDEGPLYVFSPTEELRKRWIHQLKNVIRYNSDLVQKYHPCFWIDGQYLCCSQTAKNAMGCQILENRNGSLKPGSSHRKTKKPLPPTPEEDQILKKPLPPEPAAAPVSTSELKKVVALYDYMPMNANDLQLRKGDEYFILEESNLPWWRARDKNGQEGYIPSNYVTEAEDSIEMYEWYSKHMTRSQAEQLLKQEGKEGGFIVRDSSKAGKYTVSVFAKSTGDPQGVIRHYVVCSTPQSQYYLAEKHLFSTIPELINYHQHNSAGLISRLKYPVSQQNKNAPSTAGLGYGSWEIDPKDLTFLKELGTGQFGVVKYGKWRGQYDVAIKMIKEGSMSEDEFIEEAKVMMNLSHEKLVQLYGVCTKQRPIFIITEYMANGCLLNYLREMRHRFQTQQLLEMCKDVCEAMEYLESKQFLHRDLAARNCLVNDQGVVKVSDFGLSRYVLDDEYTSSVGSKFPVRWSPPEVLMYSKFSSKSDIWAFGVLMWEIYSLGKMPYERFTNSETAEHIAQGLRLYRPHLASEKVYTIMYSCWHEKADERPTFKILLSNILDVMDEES

One may read the IC50 as the concentration that gives 50% inhibition. As for `C=CC(=O)Nc1cc(-c2nc(Nc3ncc(C)s3)cc3c2ccn3C)ccc1F` [Example 54, N-(2-fluoro-5-(1-methyl-6-((5-methylthiazol-2-yl)amino)-1H-pyrrolo[3,2-c]pyridin-4-yl)phenyl)acrylamide], the results for the IC50 in test [1] (setting [3]) and in test [2] (setting [4]) were not above 20 nM and 20 to 100 nM, respectively.

As to `C=CC(=O)N1CC(C)(Oc2nc(Nc3ncc(C)s3)cc3c2ccn3C(C)C)C1` [Example 163, 1-(3-((1-isopropyl-6-((5-methylthiazol-2-yl)amino)-1H-pyrrolo[3,2-c]pyridin-4-yl)oxy)-3-methylazetidin-1-yl)prop-2-en-1-one], the IC50 in test [1] (setting [5]) and in test [2] (setting [6]) was not above 20 nM throughout.

As to `C=CC(=O)N1CC[C@H](Oc2nc(Nc3cccn(C)c3=O)cc3c2ccn3C(C)C)C1` [Example 198, (S)-3-((4-((1-acryloylpyrrolidin-3-yl)oxy)-1-isopropyl-1H-pyrrolo[3,2-c]pyridin-6-yl)amino)-1-methylpyridin-2(1H)-one], the IC50 in test [1] (setting [5]) and in test [2] (setting [6]) was more than 500 nM throughout.

As for `C=CC(=O)N1CCC[C@@H]1COc1nc(Nc2ncc(C)s2)cc2c1ccn2CC(F)F` [Example 210, (R)-1-(2-(((1-(2,2-difluoroethyl)-6-((5-methylthiazol-2-yl)amino)-1H-pyrrolo[3,2-c]pyridin-4-yl)oxy)methyl)pyrrolidin-1-yl)prop-2-en-1-one], the IC50 in test [1] (setting [5]) and in test [2] (setting [6]) was not above 20 nM throughout.

`C=CC(=O)N1C[C@@H](F)[C@H](Oc2nc(Nc3ncc(C)s3)cc3c2ccn3CCC(C)C)C1` [Example 115, 1-((3R,4R)-3-fluoro-4-((1-isopentyl-6-((5-methylthiazol-2-yl)amino)-1H-pyrrolo[3,2-c]pyridin-4-yl)oxy)pyrrolidin-1-yl)prop-2-en-1-one]: the IC50 in test [1] (setting [3]) and in test [2] (setting [4]) was not above 20 nM throughout.

With `C=CC(=O)N1CC(F)(F)C[C@@H]1COc1nc(Nc2ncc(C)s2)cc2c1ccn2C(C)C` [Example 93, (R)-1-(4,4-difluoro-2-(((1-isopropyl-6-((5-methylthiazol-2-yl)amino)-1H-pyrrolo[3,2-c]pyridin-4-yl)oxy)methyl)pyrrolidin-1-yl)prop-2-en-1-one], the IC50 in test [1] (setting [5]) and in test [2] (setting [6]) was not above 20 nM each time.

For the compound `C=CC(=O)Nc1cc(-c2nc(Nc3ncc(C)s3)cc3c2ccn3C(C)C)c(F)cc1F` [Example 60, N-(2,4-difluoro-5-(1-isopropyl-6-((5-methzylthiazol-2-yl)amino)-1H-pyrrolo[3,2-c]pyridin-4-yl)phenyl)acrylamide], the IC50 in test [1] (setting [5]), in test [1] (setting [3]), in test [2] (setting [6]) and in test [2] (setting [4]) was not above 20 nM each time.

As for `C=CC(=O)N1CC[C@@H]1COc1nc(Nc2ncc(C)s2)cc2c1ccn2C1CCCC1` [Example 223, (R)-1-(2-(((1-cyclopentyl-6-((5-methylthiazol-2-yl)amino)-1H-pyrrolo[3,2-c]pyridin-4-yl)oxy)methyl)azetidin-1-yl)prop-2-en-1-one], the IC50 in test [1] (setting [5]) and in test [2] (setting [6]) was not above 20 nM in each case.

With `C=CC(=O)N1CC(C)C(Oc2nc(Nc3ncc(C)s3)cc3c2ccn3CC(C)C)C1` (centres unmarked) [Example 116, 1-(3-((1-isobutyl-6-((5-methylthiazol-2-yl)amino)-1H-pyrrolo[3,2-c]pyridin-4-yl)oxy)-4-methylpyrrolidin-1-yl)prop-2-en-1-one], the IC50 in test [1] (setting [3]) and in test [2] (setting [4]) was not above 20 nM throughout.

With `C=CC(=O)Nc1ccc(F)c(-c2nc(Nc3ncc(C)s3)cc3c2ccn3[C@@H](C)CC)c1` [Example 68, (S)-N-(3-(1-(sec-butyl)-6-((5-methylthiazol-2-yl)amino)-1H-pyrrolo[3,2-c]pyridin-4-yl)-4-fluorophenyl)acrylamide], the figures for the half-inhibitory concentration (IC50) in test [1] (setting [5]) and in test [2] (setting [6]) were not above 20 nM and 20 to 100 nM, respectively.

Consider `C=CC(=O)N1CCC[C@@H]1COc1nc(Nc2ncc(C)s2)cc2c1ccn2C(C)C` [Example 89, (R)-1-(2-(((1-isopropyl-6-((5-methylthiazol-2-yl)amino)-1H-pyrrolo[3,2-c]pyridin-4-yl)oxy)methyl)pyrrolidin-1-yl)prop-2-en-1-one], for which the results for the IC50 in test [1] (setting [5]) and in test [2] (setting [6]) were not above 20 nM and 20 to 100 nM, respectively.

For the compound `C=CC(=O)N1CC=C(c2nc(Nc3cc(C)ncn3)cc3c2ccn3C(C)C)CC1` [Example 44, 1-(4-(1-isopropyl-6-((6-methylpyrimidin-4-yl)amino)-1H-pyrrolo[3,2-c]pyridin-4-yl)-3,6-dihydropyridin-1(2H)-yl)prop-2-en-1-one], the IC50 in test [1] (setting [5]) fell in the range of 20 to 100 nM; in test [2] (setting [6]), 100 to 500 nM.

`C=CC(=O)N1C[C@@H](F)[C@H](Oc2nc(Nc3ncc(C)s3)cc3c2ccn3[C@@H](C)CC)C1` [Example 113, 1-((3R,4R)-3-((1-((S)-sec-butyl)-6-((5-methylthiazol-2-yl)amino)-1H-pyrrolo[3,2-c]pyridin-4-yl)oxy)-4-fluoropyrrolidin-1-yl)prop-2-en-1-one]: the 50% inhibitory concentration (IC50) in test [1] (setting [5]) and in test [2] (setting [6]) was not above 20 nM in each case.

In the case of `C=CC(=O)N1CC[C@H](Oc2nc(Nc3ncc(C)s3)cc3c2ccn3C(C)C)C1` [Example 79, (S)-1-(3-((1-isopropyl-6-((5-methylthiazol-2-yl)amino)-1H-pyrrolo[3,2-c]pyridin-4-yl)oxy)pyrrolidin-1-yl)prop-2-en-1-one], the IC50 in test [1] (setting [5]), in test [1] (setting [3]), in test [2] (setting [6]) and in test [2] (setting [4]) was not above 20 nM each time.

On to `C=CC(=O)Nc1ccc(F)c(-c2nc(Nc3ncc(C)s3)cc3c2ccn3C2CCCC2)c1` [Example 70, N-(3-(1-cyclopentyl-6-((5-methylthiazol-2-yl)amino)-1H-pyrrolo[3,2-c]pyridin-4-yl)-4-fluorophenyl)acrylamide], for which the IC50 in test [1] (setting [5]) was not above 20 nM; in test [2] (setting [6]), 20 to 100 nM.

In the case of `C=CC(=O)N1CCCC1COc1nc(Nc2ncc(C)s2)cc2c1ccn2C1CCCC1` (centres unmarked) [Example 217, 1-(2-(((1-cyclopentyl-6-((5-methylthiazol-2-yl)amino)-1H-pyrrolo[3,2-c]pyridin-4-yl)oxy)methyl)pyrrolidin-1-yl)prop-2-en-1-one], the values for the IC50 in test [1] (setting [5]) and in test [2] (setting [6]) were not above 20 nM and 20 to 100 nM, respectively.

For the compound `C=CC(=O)N1CC(C)(Oc2nc(Nc3ncc(C)s3)cc3c2ccn3CC)C1` [Example 155, 1-(3-((1-ethyl-6-((5-methylthiazol-2-yl)amino)-1H-pyrrolo[3,2-c]pyridin-4-yl)oxy)-3-methylazetidin-1-yl)prop-2-en-1-one], the IC50 in test [1] (setting [5]) is not above 20 nM; in test [2] (setting [6]) it was 20 to 100 nM.

Turning to `C=CC(=O)N1CCCC12CCC(Oc1nc(Nc3ncc(C)s3)cc3c1ccn3CC(C)C)C2` (centres unmarked) [Example 201, 1-(7-((1-isobutyl-6-((5-methylthiazol-2-yl)amino)-1H-pyrrolo[3,2-c]pyridin-4-yl)oxy)-1-azaspiro[4.4]nonan-1-yl)prop-2-en-1-one], the IC50 in test [1] (setting [5]) is 100 to 500 nM; in test [2] (setting [6]) it was more than 500 nM.

With `C=CC(=O)N1CC=C(c2nc(Nc3ncc(C)s3)cc3c2ccn3Cc2ccccc2)CC1` [Example 15, 1-(4-(1-benzyl-6-((5-methylthiazol-2-yl)amino)-1H-pyrrolo[3,2-c]pyridin-4-yl)-3,6-dihydropyridin-1(2H)-yl)prop-2-en-1-one], the IC50 in test [1] (setting [3]) and in test [2] (setting [4]) was not above 20 nM each time.

Turning to `C=CC(=O)N1CC[C@H](Oc2nc(Nc3ncc(C)s3)cc3c2ccn3CC(F)(F)F)C1` [Example 205, (S)-1-(3-((6-((5-methylthiazol-2-yl)amino)-1-(2,2,2-trifluoroethyl)-1H-pyrrolo[3,2-c]pyridin-4-yl)oxy)pyrrolidin-1-yl)prop-2-en-1-one], the 50% inhibitory concentration (IC50) in test [1] (setting [5]) and in test [2] (setting [6]) was not above 20 nM throughout.

(Values after patent EP4707277A1, “NOVEL HETEROCYCLIC AMINE DERIVATIVES AND PHARMACEUTICAL COMPOSITION COMPRISING SAME” (Daewoong Pharmaceutical Co., Ltd., priority 2023, dated 2024).)
